Assay results reported in the supplement of paper PMC10307832.

Assays:
Experiment in all cases: relative viability (nuclei count vs DMSO), 5 days (fraction); higher = more cells survive
[1] = compound: CC(C)CCN1c2nc(Nc3cc(F)c(O)c(F)c3)ncc2N(C)C(=O)C1C [BI-D1870] + Cc1nc(NC(=O)N2CCC[C@H]2C(N)=O)sc1-c1ccnc(C(C)(C)C(F)(F)F)c1 [Alpelisib] (partner 2 µM)
Outline: (§1)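 Lung cancer cell lines were seeded in 1536-well plates and dosed by pin tool the next day, with either a single drug or a fixed anchor-drug dose combined with five library-drug doses (not always all listed) spaced in √10 steps. Five days later, one step fixed the cells and stained their nuclei (final 0.05% Triton X-100, 1% formaldehyde, 1 ug/ml Hoechst), and nuclei were counted on 4× images. Relative viability is the nuclei count in treated wells divided by the count in vehicle wells, and each value is the median of duplicate plates.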

[2] = compound: CC(C)CCN1c2nc(Nc3cc(F)c(O)c(F)c3)ncc2N(C)C(=O)C1C [BI-D1870] + O=C(CCCCCCC(=O)Nc1ccccc1)NO [Vorinostat] (partner 1 µM)
Outline: as §1

[3] = compound: CC(C)CCN1c2nc(Nc3cc(F)c(O)c(F)c3)ncc2N(C)C(=O)C1C [BI-D1870] + COc1cc2c(Oc3ccc(NC(=O)C4(C(=O)Nc5ccc(F)cc5)CC4)cc3F)ccnc2cc1OCCCN1CCOCC1 [Foretinib] (partner 0.25 µM)
Outline: as §1

[4] = compound: O=c1ncccn1[C@@H]1O[C@H](CO)[C@@H](O)[C@H]1O [Zebularine] + O=C(CCCCCCC(=O)Nc1ccccc1)NO [Vorinostat] (partner 1 µM)
Outline: as §1

With UMC-11 the relative viability ([1]; first compound 0.04 µM) was 1.05, the relative viability ([1]; first compound 0.1265 µM) was 0.935 and the relative viability ([1]; first compound 0.4 µM) was 1. It also gave a relative viability ([1]; first compound 1.265 µM) of 1.05, a relative viability ([1]; first compound 4 µM) of 1.02 and a relative viability ([2]; first compound 0.04 µM) of 0.394. It also gave a relative viability ([2]; first compound 0.1265 µM) of 0.377, a relative viability ([2]; first compound 0.4 µM) of 0.337 and a relative viability ([2]; first compound 1.265 µM) of 0.329. It also gave a relative viability ([2]; first compound 4 µM) of 0.128, a relative viability ([3]; first compound 0.04 µM) of 1.1 and a relative viability ([3]; first compound 0.1265 µM) of 0.986. For the same cell line, the relative viability ([3]; first compound 0.4 µM) was 1.11, the relative viability ([3]; first compound 1.265 µM) was 0.897 and the relative viability ([3]; first compound 4 µM) was 0.198. It also gave a relative viability ([4]; first compound 1 µM) of 0.388, a relative viability ([4]; first compound 3.162 µM) of 0.359 and a relative viability ([4]; first compound 10 µM) of 0.335. The relative viability ([4]; first compound 31.62 µM) was 0.331 and the relative viability ([4]; first compound 100 µM) was 0.279.
